Eleven compounds from patent US11566047B2, “Peptide or pharmaceutically acceptable salt thereof, or prodrug thereof” (TOKYO UNIVERSITY OF PHARMACY & LIFE SCIENCES, priority 2016, dated 2023) can be followed below.

Square brackets hold non-standard residues; d marks the D form. Ends that are not written are not given here. Peptide text beside a SMILES is read from it. * marks the point of attachment. Diglycolyl(TOTA) = NCCCOCCOCCOCCCNC(=O)COCC(=O)*; 2Nal = N[C@@H](Cc1ccc2ccccc2c1)C(=O)O; Chg = N[C@H](C(=O)O)C1CCCCC1; X1 = COCCOCCOCCOCCC(=O)*; R111 = not defined here; Ahx = NCCCCCC(=O)O Where only a bound is given, the exact number is not on record here.

One assay concerns the target T1, myostatin (Homo sapiens, UniProt O14793).
T1 sequence (O14793 267-375): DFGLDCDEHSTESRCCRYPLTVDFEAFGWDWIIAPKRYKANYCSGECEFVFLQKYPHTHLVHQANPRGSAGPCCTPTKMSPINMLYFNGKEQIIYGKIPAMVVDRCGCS
As to the kind of experiment: cell-based. The conditions noted are these: HEK293, read-out: luciferase activity (relative; myostatin without test sample = 100%). How it is done: Human embryo kidney cell HEK293 cells were cultured in a 5% (v/v) CO2 incubator set to 37° C. using DMEM (NACALAI TESQUE, INC.) including a 10% (v/v) fetal bovine serum (FBS) added with a 1% (v/v) non-essential amino acid (Wako Pure Chemical Corporation).
(2) In Vitro Reporter Assay
HEK293 cells were seeded on a D-Lys-corted 96-well transparent plate (Thermo Fisher Scientific Inc.) in an amount of 2.0×10^4 cells (100 μL DMEM+10% (v/v) FBS) per well and were cultured for 24 hours.
The cells were cultured at 37° C. for 24 hours, and after the cell culture solution was replaced with serum-free DMEM, the cells were cultured for 8 hours. Incidentally, pGL4.48 [luc2P/SBE/Hygro] includes firefly luciferase reporter gene luc2P under Smad binding region (SBE) control, and when a signaling pathway by the myostatin is activated, intracellular Smad forms a complex, and the complex is bonded to SBE to promote transcription of luc2P.
The peptide as a test sample was suspended as a stock solution using DMSO to become 10 mM and stored at −30° C. Before 1 hour from addition to the culture medium, the peptide and a myostatin (Merck Millipore Corp.) were suspended with serum-free DMEM and left to stand still at room temperature (25° C.) for 20 minutes. Subsequently, a peptide with an arbitrary final concentration (0.3 to […]) and 8 ng/mL of myostatin were added to the culture medium, and then culturing was performed for 4 hours. After culturing for 4 hours, the culture solution was removed by an aspirator and the cells were washed with 1×PBS. Thereafter, Passive Lysis buffer (Promega Corporation) was added in an amount of 50 μL per well to dissolve the cells. The dissolving solution was subjected to centrifugal separation at 4500 rpm for 6 minutes under the condition of 4° C. After 20 μL of supernatant subjected to centrifugal separation was transferred to a white 96-well plate (Costar), 50 μL of Luciferase Assay Reagent (Promega Corporation) was then added, emission was detected by Luminoskan Ascent (Thermo Fisher Scientific Inc.), and a firefly luciferase activity was measured. Further, after 50 μL of Stop & Glo Buffer (Promega Corporation) was added, emission was detected by Luminoskan Ascent, and a Renilla luciferase activity was measured to be regarded as an internal control.
On to `CC[C@H](C)[C@H](NC(=O)[C@H](CCC(N)=O)NC(=O)[C@@H](NC(=O)[C@H](CCCNC(=N)N)NC(=O)[C@@H](NC(=O)[C@@H](Cc1c[nH]c2ccccc12)NC(=O)[C@H](CCCNC(=N)N)NC(=O)[C@@H](NC(=O)[C@H](Cc1ccc(O)cc1)NC(=O)[C@H](Cc1c[nH]c2ccccc12)NC(=O)CCCCCNC(=O)CCOCCOCCOCCOC)[C@@H](C)CC)[C@@H](C)CC)C1CCCCC1)C(=O)N[C@@H](Cc1c[nH]c2ccccc12)C(=O)N[C@@H](CO)C(=O)N[C@@H](CCCNC(=N)N)C(=O)N[C@H](C(=O)N1CCC[C@H]1C(=O)N[C@@H](CC(C)C)C(N)=O)C1CCCCC1` [PDM-80, R^111-WYIRwIR-Chg-QIWSR-Chg-PL-NH2] ({X1-Ahx}-WYIR[dW]IR[Chg]QIWSR[Chg]PL-NH2), for which the remaining activity at 0.3 µM was at most 60%. Still for that read-out and setting: to `CC[C@H](C)[C@H](NC(=O)[C@H](Cc1ccc(O)cc1)NC(=O)[C@H](Cc1c[nH]c2ccccc12)NC(=O)CCCCCNC(=O)CCOCCOCCOCCOC)C(=O)N[C@@H](CCC(=O)O)C(=O)N[C@@H](Cc1c[nH]c2ccccc12)C(=O)N[C@H](C(=O)N[C@@H](CCCCN)C(=O)N[C@H](C(=O)N[C@@H](CCC(N)=O)C(=O)N[C@H](C(=O)N[C@@H](Cc1c[nH]c2ccccc12)C(=O)N[C@@H](CO)C(=O)N[C@@H](CCCCN)C(=O)N[C@@H](CC(C)C)C(=O)N[C@@H](CCCNC(=N)N)C(=O)N[C@@H](CC(C)C)C(N)=O)[C@@H](C)CC)[C@@H](C)CC)[C@@H](C)CC` [PDM-55, R^111-WYIEWIKIQIWSKLRL-NH2] ({X1-Ahx}-WYIEWIKIQIWSKLRL-NH2) belongs at most 60%; to `CC[C@H](C)[C@H](NC(=O)[C@H](CCC(N)=O)NC(=O)[C@@H](NC(=O)[C@H](CCCCN)NC(=O)[C@@H](NC(=O)[C@@H](Cc1c[nH]c2ccccc12)NC(=O)[C@H](CCCNC(=N)N)NC(=O)[C@@H](NC(=O)[C@H](Cc1ccc(O)cc1)NC(=O)[C@H](Cc1c[nH]c2ccccc12)NC(=O)CNC(=O)CNC(=O)COCC(=O)NCCCOCCOCCOCCCN)[C@@H](C)CC)[C@@H](C)CC)C1CCCCC1)C(=O)N[C@@H](Cc1c[nH]c2ccccc12)C(=O)N[C@@H](CO)C(=O)N[C@@H](CCCCN)C(=O)N[C@H](C(=O)N[C@@H](CCCNC(=N)N)C(=O)N[C@@H](CC(C)C)C(N)=O)C1CCCCC1` [PDM-91, R^117-WYIRwIK-Chg-QIWSK-Chg-RL-NH2] ({Diglycolyl(TOTA)}-GGWYIR[dW]IK[Chg]QIWSK[Chg]RL-NH2), at most 60%; to `CC[C@H](C)[C@H](NC(=O)[C@H](CCC(N)=O)NC(=O)[C@@H](NC(=O)[C@H](CCCCN)NC(=O)[C@@H](NC(=O)[C@H](Cc1c[nH]c2ccccc12)NC(=O)[C@H](CCCNC(=N)N)NC(=O)[C@@H](NC(=O)[C@H](Cc1ccc(O)cc1)NC(=O)[C@@H](N)Cc1c[nH]c2ccccc12)[C@@H](C)CC)[C@@H](C)CC)[C@@H](C)CC)C(=O)N[C@@H](Cc1c[nH]c2ccccc12)C(=O)N[C@@H](CO)C(=O)N[C@@H](CCCCN)C(=O)N[C@H](C(=O)N[C@@H](CCCNC(=N)N)C(=O)N[C@@H](CC(C)C)C(N)=O)C1CCCCC1` [nPDM-65, WYIRWIKIQIWSK-Chg-RL-NH2] (H-WYIRWIKIQIWSK[Chg]RL-NH2), at most 60%. `CC[C@H](C)[C@H](NC(=O)[C@H](CCC(N)=O)NC(=O)[C@@H](NC(=O)[C@H](CCCNC(=N)N)NC(=O)[C@@H](NC(=O)[C@@H](Cc1c[nH]c2ccccc12)NC(=O)[C@H](CCCNC(=N)N)NC(=O)[C@@H](NC(=O)[C@H](Cc1ccc(O)cc1)NC(=O)[C@@H](N)Cc1c[nH]c2ccccc12)[C@@H](C)CC)[C@@H](C)CC)C1CCCCC1)C(=O)N[C@@H](Cc1c[nH]c2ccccc12)C(=O)N[C@H](CO)C(=O)N[C@@H](CCCNC(=N)N)C(=O)N[C@H](C(=O)N1CCC[C@H]1C(=O)N[C@@H](CC(C)C)C(N)=O)C1CCCCC1` [nPDM-82, WYIRwIR-Chg-QIWsR-Chg-PL-NH2] (H-WYIR[dW]IR[Chg]QIW[dS]R[Chg]PL-NH2): the remaining activity at 0.3 µM was at most 60%. `CC[C@H](C)[C@H](NC(=O)[C@H](CCC(N)=O)NC(=O)[C@@H](NC(=O)[C@H](CCCCN)NC(=O)[C@@H](NC(=O)[C@H](Cc1ccc2ccccc2c1)NC(=O)[C@H](CCCNC(=N)N)NC(=O)[C@@H](NC(=O)[C@H](Cc1ccc(O)cc1)NC(=O)[C@@H](N)Cc1ccc(O)cc1)[C@@H](C)CC)[C@@H](C)CC)[C@@H](C)CC)C(=O)N[C@@H](Cc1c[nH]c2ccccc12)C(=O)N[C@@H](CO)C(=O)N[C@@H](CCCCN)C(=O)N[C@@H](CC(C)C)C(=O)N[C@@H](CCCNC(=N)N)C(=O)N[C@@H](CC(C)C)C(N)=O` [nPDM-69, YYIR-Naa-IKIQIWSKLRL-NH2] (H-YYIR[2Nal]IKIQIWSKLRL-NH2): the remaining activity at 0.3 µM is at most 60%. Still for that read-out and setting: to `CC[C@H](C)[C@H](NC(=O)[C@H](CCC(N)=O)NC(=O)[C@@H](NC(=O)[C@H](CCCCN)NC(=O)[C@@H](NC(=O)[C@@H](Cc1c[nH]c2ccccc12)NC(=O)[C@H](CCCNC(=N)N)NC(=O)[C@@H](NC(=O)[C@H](Cc1ccc(O)cc1)NC(=O)[C@H](Cc1c[nH]c2ccccc12)NC(=O)CCCCCNC(=O)CCOCCOCCOCCOC)[C@@H](C)CC)[C@@H](C)CC)C1CCCCC1)C(=O)N[C@@H](Cc1c[nH]c2ccccc12)C(=O)N[C@@H](CO)C(=O)N[C@@H](CCCCN)C(=O)N[C@H](C(=O)N[C@@H](CCCNC(=N)N)C(=O)N[C@@H](CC(C)C)C(N)=O)C1CCCCC1` [PDM-86, R^111-WYIRwIK-Chg-QIWSK-Chg-RL-NH2] ({X1-Ahx}-WYIR[dW]IK[Chg]QIWSK[Chg]RL-NH2) belongs at most 60%; to `CC[C@H](C)[C@H](NC(=O)[C@H](Cc1ccc(O)cc1)NC(=O)[C@H](Cc1c[nH]c2ccccc12)NC(=O)CCCCCNC(=O)CCOCCOCCOCCOC)C(=O)N[C@@H](CCC(=O)O)C(=O)N[C@@H](CO)C(=O)N[C@H](C(=O)N[C@@H](CCCCN)C(=O)N[C@H](C(=O)N[C@@H](CCC(N)=O)C(=O)N[C@H](C(=O)N[C@@H](Cc1c[nH]c2ccccc12)C(=O)N[C@@H](CO)C(=O)N[C@@H](CCCCN)C(=O)N[C@@H](CC(C)C)C(=O)N[C@@H](CCCNC(=N)N)C(=O)N[C@@H](CC(C)C)C(N)=O)[C@@H](C)CC)[C@@H](C)CC)[C@@H](C)CC` [PDM-63, R^111-WYIESIKIQIWSKLRL-NH2] ({X1-Ahx}-WYIESIKIQIWSKLRL-NH2), at most 60%; to `CC[C@H](C)[C@H](NC(=O)[C@H](CCC(N)=O)NC(=O)[C@@H](NC(=O)[C@H](CCCCN)NC(=O)[C@@H](NC(=O)[C@H](Cc1c[nH]c2ccccc12)NC(=O)[C@H](CCCCN)NC(=O)[C@@H](NC(=O)[C@H](Cc1ccc(O)cc1)NC(=O)[C@@H](N)Cc1c[nH]c2ccccc12)[C@@H](C)CC)[C@@H](C)CC)[C@@H](C)CC)C(=O)N[C@@H](Cc1c[nH]c2ccccc12)C(=O)N[C@@H](CO)C(=O)N[C@@H](CCCCN)C(=O)N[C@@H](CC(C)C)C(=O)N[C@@H](CCCNC(=N)N)C(=O)N[C@@H](CC(C)C)C(N)=O` [nPDM-55/E31K, WYIKWIKIQIWSKLRL-NH2] (H-WYIKWIKIQIWSKLRL-NH2), at most 60%.

Staying with this assay, now noted: at a concentration of 1 μM or more; 8 ng/mL myostatin; HEK293.
Regarding “R^111-WYIEWIKIQIISKLRL-NH2 (R111-WYIEWIKIQIISKLRL-NH2; reading uncertain; also: printed as R^111-WYIEWIKIQIISKLRL-NH2) [PDM-27]”, the “myostatin inhibitory activity (concentration-dependent evaluation)” value is “significant myostatin inhibitory activity”.

Still in this assay, the particulars now being: final concentration of 1 μM.
“WYIEAIKIQILSKLRL-NH2 [d-14, reference compound]”: the myostatin inhibitory activity entry was “a high myostatin inhibitory activity was not recognized”.
